Assay results taken from patent publication US20210198277A1, “AMINE-SUBSTITUTED ARYL OR HETEROARYL COMPOUNDS” (Epizyme, Inc., priority 2016, published 2021).

Assays:
EHMT1 = target: T1, EHMT1 (Homo sapiens, UniProt Q9H9B1); assay: EHMT1 enzyme assay on peptide substrate (EHMT1 PEP); format: biochemical; conditions: Table II; read-out: EHMT1 PEP (IC50 μM)
T1 sequence (Q9H9B1 1-1298): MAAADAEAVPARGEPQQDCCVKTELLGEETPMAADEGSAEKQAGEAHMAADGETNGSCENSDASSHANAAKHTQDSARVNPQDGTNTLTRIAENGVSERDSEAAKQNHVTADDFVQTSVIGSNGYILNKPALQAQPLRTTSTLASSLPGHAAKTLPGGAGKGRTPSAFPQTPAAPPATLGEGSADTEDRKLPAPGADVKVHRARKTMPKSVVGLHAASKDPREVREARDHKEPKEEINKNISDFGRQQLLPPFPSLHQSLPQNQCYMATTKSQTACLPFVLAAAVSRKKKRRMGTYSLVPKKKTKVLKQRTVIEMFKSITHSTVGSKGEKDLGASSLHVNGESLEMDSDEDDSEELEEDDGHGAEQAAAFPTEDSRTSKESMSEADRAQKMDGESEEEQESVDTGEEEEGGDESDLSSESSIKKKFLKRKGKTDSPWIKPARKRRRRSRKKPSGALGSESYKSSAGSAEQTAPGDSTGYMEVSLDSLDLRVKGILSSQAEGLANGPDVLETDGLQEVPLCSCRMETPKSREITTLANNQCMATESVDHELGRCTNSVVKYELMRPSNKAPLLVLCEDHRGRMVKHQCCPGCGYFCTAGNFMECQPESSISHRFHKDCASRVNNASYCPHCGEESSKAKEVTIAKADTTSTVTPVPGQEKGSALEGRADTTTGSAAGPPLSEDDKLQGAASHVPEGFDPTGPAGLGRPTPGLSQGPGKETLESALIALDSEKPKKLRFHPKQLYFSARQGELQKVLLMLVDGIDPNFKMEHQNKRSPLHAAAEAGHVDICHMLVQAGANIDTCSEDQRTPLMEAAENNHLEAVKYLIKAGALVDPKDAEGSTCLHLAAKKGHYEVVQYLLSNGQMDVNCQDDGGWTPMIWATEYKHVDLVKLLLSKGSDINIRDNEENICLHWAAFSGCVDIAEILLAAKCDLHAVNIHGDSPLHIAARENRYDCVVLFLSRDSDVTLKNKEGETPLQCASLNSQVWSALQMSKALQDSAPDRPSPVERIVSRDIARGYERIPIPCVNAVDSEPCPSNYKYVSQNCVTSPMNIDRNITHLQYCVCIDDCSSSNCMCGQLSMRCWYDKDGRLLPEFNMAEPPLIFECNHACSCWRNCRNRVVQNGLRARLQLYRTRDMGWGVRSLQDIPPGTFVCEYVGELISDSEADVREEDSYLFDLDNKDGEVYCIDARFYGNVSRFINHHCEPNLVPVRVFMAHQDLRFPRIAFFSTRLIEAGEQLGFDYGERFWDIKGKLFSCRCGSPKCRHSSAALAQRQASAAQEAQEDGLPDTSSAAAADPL

human EHMT2 913-1193 = target: T2, human EHMT2 913-1193 (Homo sapiens, UniProt Q96KQ7); assay: EHMT2 enzyme assay on histone peptide substrate (EHMT2 PEP); format: biochemical; conditions: Table II; read-out: EHMT2 PEP (IC50 μM)
T2 construct: recombinant purified human EHMT2 913-1193, Viva; purchased Viva
T2 sequence (Q96KQ7 913-1193): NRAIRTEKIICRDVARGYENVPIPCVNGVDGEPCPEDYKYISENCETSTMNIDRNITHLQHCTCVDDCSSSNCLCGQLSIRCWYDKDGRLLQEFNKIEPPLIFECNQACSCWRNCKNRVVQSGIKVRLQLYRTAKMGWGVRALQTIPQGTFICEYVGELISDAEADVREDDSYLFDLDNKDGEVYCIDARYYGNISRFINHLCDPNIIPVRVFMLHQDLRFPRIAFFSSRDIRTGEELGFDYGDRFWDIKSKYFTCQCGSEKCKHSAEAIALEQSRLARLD
Method: Recombinant purified human EHMT2 913-1193 (55 μM) synthesized by Viva was used for all experiments. Biotinylated histone peptides were synthesized by Biopeptide and HPLC-purified to >95% purity. Streptavidin Flashplates and seals were purchased from PerkinElmer and 384 Well V-bottom Polypropylene Plates were from Greiner. ^3H-labeled S-adenosylmethionine (^3H-SAM) was obtained from American Radiolabeled Chemicals with a specific activity of 80 Ci/mmol. Unlabeled SAM and S-adenosylhomocysteine (SAH) were obtained from American Radiolabeled Chemicals and Sigma-Aldrich respectively. Flashplates were washed in a Biotek ELx-405 with 0.1% Tween. 384-well Flashplates and 96-well filter binding plates were read on a TopCount microplate reader (PerkinElmer). Compound serial dilutions were performed on a Freedom EVO (Tecan) and spotted into assay plates using a Thermo Scientific Matrix PlateMate (Thermo Scientific). Reagent cocktails were added by Multidrop Combi (Thermo Scientific).
General Procedure for EHMT2 Enzyme Assay on Histone Peptide Substrate.
10-point curves of test compounds were made on a Freedom EVO (Tecan) using serial 3-fold dilutions in DMSO, beginning at 2.5 mM (final top concentration of compound was 50 μM and the DMSO was 2%). A 1 μL aliquot of the inhibitor dilution series was spotted in a polypropylene 384-well V-bottom plate (Greiner) using a Thermo Scientific Matrix PlateMate (Thermo Scientific). […] Compounds were incubated for 30 minutes with 40 μL per well of 0.031 nM EHMT2 (recombinant purified human EHMT2 913-1193, Viva) in 1× assay buffer (20 mM Bicine [pH 7.5], 0.002% Tween 20, 0.005% Bovine Skin Gelatin and 1 mM TCEP). […] Reactions were incubated for 60 minutes at room temperature and quenched with 10 μL per well of 400 μM unlabeled SAM, then transferred to a 384-well streptavidin Flashplate (PerkinElmer) and washed in a Biotek ELx-405 well washer with 0.1% Tween after 60 minutes. 384-well Flashplates were read on a TopCount microplate reader (PerkinElmer).

Structure (SMILES): CCCCNc1nc(C#N)cc(NCC2CCNCC2)n1 [Compound 94]
- IC50 (EHMT1): 1 to 10 µM
- IC50 (human EHMT2 913-1193): 1 to 10 µM

Structure (SMILES): O=C(NCCNc1ccnc(NCC2CCNCC2)n1)c1ccc2[nH]c(=O)oc2c1 [Compound 95]
- IC50 (EHMT1): > 10 µM
- IC50 (human EHMT2 913-1193): > 10 µM

Structure (SMILES): O=C1Cc2cc(C(=O)NCCNc3ccnc(NCC4CCNCC4)n3)ccc2N1 [Compound 96]
- IC50 (EHMT1): 1 to 10 µM
- IC50 (human EHMT2 913-1193): 1 to 10 µM

Structure (SMILES): CN1CCC(CNc2nccc(NCCNC(=O)c3ccc4c(c3)CC(=O)N4)n2)CC1 [Compound 97]
- IC50 (EHMT1): 1 to 10 µM
- IC50 (human EHMT2 913-1193): 1 to 10 µM

Structure (SMILES): CC(=O)N1CCC(CNc2nccc(NCCNC(=O)c3ccc4c(c3)CC(=O)N4)n2)CC1 [Compound 98]
- IC50 (EHMT1): > 10 µM
- IC50 (human EHMT2 913-1193): > 10 µM

Structure (SMILES): O=C(NCCNc1ccnc(NCC2CCNCC2)n1)c1ccc(N2CCCC2)cc1 [Compound 99]
- IC50 (EHMT1): > 10 µM
- IC50 (human EHMT2 913-1193): > 10 µM

Structure (SMILES): O=C(NCCNc1ccnc(NCC2CCNCC2)n1)c1cccc(N2CCCC2)c1 [Compound 100]
- IC50 (EHMT1): > 10 µM
- IC50 (human EHMT2 913-1193): > 10 µM

Structure (SMILES): CN1CCC(CNc2nccc(NCCNC(=O)c3ccc4c(c3)CC(=O)N4)n2)CC1 [Compound 101]
- IC50 (EHMT1): > 10 µM
- IC50 (human EHMT2 913-1193): 1 to 10 µM

Structure (SMILES): COc1ccc(Nc2nccc(N3CCOCC3)n2)cc1OCCCN1CCCC1 [Compound 102]
- IC50 (EHMT1): > 10 µM
- IC50 (human EHMT2 913-1193): > 10 µM

Structure (SMILES): COc1ccc(Nc2nccc(CNC3CCNCC3)n2)cc1OCCCN1CCCC1 [Compound 104]
- IC50 (EHMT1): > 10 µM
- IC50 (human EHMT2 913-1193): > 10 µM

Structure (SMILES): O=C1Cc2cc(C(=O)NCCNc3nccc(NCC4CCNCC4)n3)ccc2N1 [Compound 105]
- IC50 (EHMT1): > 10 µM
- IC50 (human EHMT2 913-1193): 1 to 10 µM

Structure (SMILES): COc1ccc(Nc2nccc(CNC3CCN(C(C)=O)CC3)n2)cc1OCCCN1CCCC1 [Compound 106]
- IC50 (EHMT1): 0.1 to 1 µM
- IC50 (human EHMT2 913-1193): 1 to 10 µM

Structure (SMILES): COc1ccc(Nc2nccc(CNC3CCOCC3)n2)cc1OCCCN1CCCC1 [Compound 107]
- IC50 (EHMT1): > 10 µM
- IC50 (human EHMT2 913-1193): > 10 µM

Structure (SMILES): COc1ccc(Nc2cc(NCC3CCNCC3)ncn2)cc1OCCCN1CCCC1 [Compound 108]
- IC50 (EHMT1): 1 to 10 µM
- IC50 (human EHMT2 913-1193): 1 to 10 µM

Structure (SMILES): COc1ccc(Nc2nccc(NCC3CCNCC3)n2)cc1OCCCC1CCCC1 [Compound 109]
- IC50 (EHMT1): 1 to 10 µM
- IC50 (human EHMT2 913-1193): 1 to 10 µM

Structure (SMILES): COc1cnc(Nc2cc(CNC3CCOCC3)ccn2)cc1OCCCN1CCCC1 [Compound 110]
- IC50 (EHMT1): 1 to 10 µM
- IC50 (human EHMT2 913-1193): 1 to 10 µM

Structure (SMILES): COc1ccc(Nc2nccc(CNC3CCN(C)CC3)n2)cc1OCCCN1CCCC1 [Compound 111]
- IC50 (EHMT1): > 10 µM
- IC50 (human EHMT2 913-1193): > 10 µM

Structure (SMILES): COc1ccc(Nc2nccc(CN(C)C3CCOCC3)n2)cc1OCCCN1CCCC1 [Compound 112]
- IC50 (EHMT1): > 10 µM
- IC50 (human EHMT2 913-1193): > 10 µM

Structure (SMILES): COc1ccc(Nc2cccc(NCC3CCNCC3)n2)cc1OCCCN1CCCC1 [Compound 113]
- IC50 (EHMT1): 1 to 10 µM
- IC50 (human EHMT2 913-1193): 1 to 10 µM

Structure (SMILES): CC(=O)N1CCC(CNc2ccnc(Nc3cccc(NC(=O)CCN4CCCC4)c3)n2)CC1 [Compound 114]
- IC50 (EHMT1): > 10 µM
- IC50 (human EHMT2 913-1193): > 10 µM

Structure (SMILES): CC(=O)N1CCC(CNc2ccnc(Nc3cccc(NC(=O)c4ccc5c(c4)CC(=O)N5)c3)n2)CC1 [Compound 115]
- IC50 (EHMT1): > 10 µM
- IC50 (human EHMT2 913-1193): > 10 µM

Structure (SMILES): COc1ccc(Nc2nccc(NCC3CCNCC3)n2)cc1OCCCN1CCCC1Cc1ccccc1 (centres unmarked) [Compound 116]
- IC50 (EHMT1): 1 to 10 µM
- IC50 (human EHMT2 913-1193): 1 to 10 µM

Structure (SMILES): COc1ccc(Nc2nccc(NCC3CCN(C(C)=O)CC3)n2)cc1OCCCN1CC[C@H](F)C1 [Compound 117]
- IC50 (EHMT1): 1 to 10 µM
- IC50 (human EHMT2 913-1193): 1 to 10 µM

Structure (SMILES): COc1ccc(Nc2nccc(NCC3CCN(C(C)=O)CC3)n2)cc1OCCCN1CC[C@@H](F)C1 [Compound 118]
- IC50 (EHMT1): 0.1 to 1 µM
- IC50 (human EHMT2 913-1193): 0.1 to 1 µM

Structure (SMILES): COc1ccc(Nc2nccc(NCC3CCN(C(C)=O)CC3)n2)cc1OCCCN1CCCC1=O [Compound 119]
- IC50 (EHMT1): > 10 µM
- IC50 (human EHMT2 913-1193): > 10 µM

Structure (SMILES): COc1ccc(Nc2nccc(NCC3CCN(C(C)=O)CC3)n2)cc1OCC1CCCN1C (centres unmarked) [Compound 120]
- IC50 (EHMT1): 0.1 to 1 µM
- IC50 (human EHMT2 913-1193): 1 to 10 µM

Structure (SMILES): COc1ccc(Nc2nccc(NCC3CCN(C(C)=O)CC3)n2)cc1NC(=O)CCN1CCCC1 [Compound 121]
- IC50 (EHMT1): 1 to 10 µM
- IC50 (human EHMT2 913-1193): 1 to 10 µM

Structure (SMILES): CC(=O)N1CCC(CNc2ccnc(Nc3cccc(NC(=O)c4cc(C5CC5)on4)c3)n2)CC1 [Compound 122]
- IC50 (EHMT1): > 10 µM
- IC50 (human EHMT2 913-1193): > 10 µM
